Measurements reported in patent publication US9820483B2, “Microbial composition” (Rohm and Haas Company, priority 2011, dated 2017).

Experiments:
S. aureus ATCC 6538 = assay: Synergy of terpinyl alcohols with phenolic compounds in water, 15 seconds contact, plate count log reduction; format: cell-based, Staphylococcus aureus; details: 0.1% alone
Experimental: Liquid actives were used directly. Solid actives were dissolved in alcohol and a 50% stock was made.
The culture was grown overnight in Tryptone soya agar. It was suspended in saline (0.85% NaCl) to a con. of 1.5×10^8-5×10^8 cells/ml
To 9 ml water the actives were added to give the desired concentration. 1 ml of the culture was added and mixed. After 15 seconds contact 1 ml aliquot was removed and added to a neutraliser and kept for 5 minutes. A control of untreated cells was similarly processed. It was then diluted and plated. The plates were incubated at 37° C. for 24 hours. The colonies on the plates were counted. The counts were converted to log10. The log. no. of survivors was determined and log reduction calculated.

[1] = system: Escherichia coli (E. coli—ATCC #10536); assay: Automated assessment of efficacy in model surfactant base (2.85% sodium cocoyl glycinate + 1.85% sodium lauroamphoacetate, pH 10), 15 seconds exposure, delta OD450/OD590 in D/E quench; format: cell-based
Experimental: Solutions were prepared such that the concentrations of the surfactant components and test actives were 1.1× the final desired concentration in order to allow for dilution with the bacterial inoculum in the test. The solutions were manually adjusted to pH 10.0 by dropwise addition of sodium hydroxide solution, as measured with a pH meter at ambient temperature.
Tests were conducted using standard microtiter plate assays using an automated liquid handling system. 270 μl of the surfactant test solution was pipetted into each well of the microtitre plate and 30 μl of the bacterial suspension was then added. After exactly 15 seconds of bacterial exposure, a 30 μl volume of bacterial cells was withdrawn and transferred to 270 μl of D/E quench solution. After 5 minutes in the D/E quench, the optical density (OD) was measured for each plate in turn at two specific wavelengths (450 nm and 590 nm). These provide a dual check of antimicrobial activity, as the OD450 reading is specific for the yellow colour of D/E quench when bacterial growth is observed, whereas OD590 is specific for the initial purple colour of the D/E quench which is retained if no bacterial growth is observed. After the time zero OD measurements, plates were then incubated at 37° C. overnight (16 hours) before repeating the OD measurements. Delta OD values were calculated by subtracting […]. Bacterial growth is observed as an increase in OD450 and a decrease in ΔOD590. To identify antibacterially efficacious systems (those preventing appreciable bacterial growth after incubation), the following threshold changes in OD readings have been adopted: if (1). OD450 increases by less than 0.2 absorbance unit on incubation and (2). OD590 decreases by less than 0.35 unit on incubation. Conversely, where OD450 increases by more than 0.2 AU and OD590 decreases by more than 0.35 unit after incubation, corresponding to a colour shift from purple to yellow, the test system allows bacterial growth and is not deemed efficacious. Four replicate measurements in the same plate have been made for each test system. The number of replicate wells showing either bacterial growth or no growth is also readily assessed by eye by following the colour change.
Dose responses for individual components and binary mixtures of actives at a fixed concentration ratio were generated by sequential dilution of liquors with further surfactant solution to obtain a series of endpoints.
In some selected cases, the combinations were also tested at the weight ratio 1:1.
The method used was the same as in the above Table.

E. coli ATCC #10536 = assay: Synergy test: high resolution MBC microtiter plate assay in phosphate buffer containing 35% dipropylene glycol, 15 seconds contact; format: cell-based, Escherichia coli; details: E. coli 10536, complete kill in 15 seconds, phosphate buffer with 35% DPG
Text: One measure of synergy is the industrially accepted method described by Kull, F. C.; Eisman. P. C.; Sylwestrowicz, H. D. and Mayer, R. L., in Applied Microbiology 9:538-541 (1961), using the ratio determined by the formula: Qa/QA÷Qb/QB=Synergy Index (“SI”) wherein: QA=concentration of compound A (first component) in percent, acting alone, which produced an end point (MBC of Compound A). […]=concentration of compound A in percent, in the mixture, which produced an end point. QB=concentration of compound B (second component) in percent, acting alone, which produced an end point (MBC of Compound B). Qb=concentration of compound B in percent, in the mixture, which produced an end point.
When the sum of Qa/QA and Qb/QB is greater than one, antagonism is indicated. […] The lower the SI, the greater is the synergy shown by that particular mixture. The minimum biocidal concentration (MBC) of a microbicide is the lowest concentration tested under a specific set of conditions that provides complete kill of the tested microorganisms.
Synergy tests were conducted using standard microtiter plate assays with phosphate buffer containing 35% dipropylene glycol (DPG). In this method, a wide range of combinations of chemicals was tested by conducting high resolution MBC assays of Component (A) in the presence of various concentrations of Component (B). High resolution MBCs were determined by adding varying amounts of microbicide to one column of a microtiter plate and doing subsequent ten-fold dilutions using an automated liquid handling system to obtain a series of closely spaced endpoints. The MBC plate was inoculated one column at a time with the test microorganism. An aliquot of the inoculated well was transferred at 15 seconds to a plate containing a neutralizing agent (D/E Neutralizing Broth), mixed and held for 5 minutes before being transferred to a growth plate containing trypticase soy broth (TSB). The TSB plate was incubated at 37° C. and read for the presence/absence of growth at 24 hours. The lowest level tested that provided complete kill (as evidenced by no growth in the microtitre plate) of the test organisms in 15 seconds is the minimum biocidal concentration (MBC).
The synergy of the combinations of the present invention was determined against a bacterium, Esherichia coli (E. coli—ATCC #10536), at a concentration of approximately 1×10^8 bacteria per mL. This microorganism is representative of natural contaminants in many consumer and industrial applications.

[2] = system: Staphylococcus aureus (10788 strain); assay: Antimicrobial efficacy of actives against S. aureus in water, 15 seconds contact, NMBS; format: cell-based; details: 0.5% w/v alone, S. aureus, 15 s
Experimental: Selected materials were also tested against a representative Gram positive Staphylococcus aureus.
The following assay describes the testing of 8 materials using 6 dilutions across half of a 96-well micro titre plate (MTP). Using this approach it is possible to assay 16 actives (without replicates) with one full dilution plate, replicating this set up in two halves of the plate columns, 1-6 and 7-12.
Bacterial stock (30 μl) was then added to the prepared 270 μl of the solution of actives in the Screening Plate and mixed, using a multichannel pipette with 8 tips to aspirate and dispense the same volume of bacterial stock in parallel to 8 wells in rows A-H. After a contact time of 15 seconds, the mixtures were quenched by transferring 30 μl volumes of the mixtures into the 270 μl D/E neutralising solution in the prepared dilution plate, using aspiration to mix. After exactly 5 minutes in the D/E neutralising solution, […] were transferred from column 1 to column 2 of the Dilution MTP and mixed, before transferring further 30 μl volumes from column 2 into column 3. This process was repeated serially diluting the bacteria across the plate to column 6.
30 μl volumes from each well in the Dilution MTP were transferred onto pre-labelled segment of Tryptone Soya Agar (TSA) plates starting from the lowest bacterial concentration (highest dilution, column 6) to the highest bacterial concentration (column 1). The TSA plates were allowed to stand for ca. 2 hours so that the 30 μl inocula spots could dry and the plates were then inverted and incubated overnight at 37° C. before enumerating the bacterial colonies at the labelled dilutions to determine the effects of the actives on bacterial growth.
Mean bacterial survival numbers NMBS (expressed in Log CFU/ml) are obtained by first determining the segment of the TSA plate where the number of bacterial colonies is countable. From the colony number in this segment. NMBS is calculated by the formula: NMBS=log {Ncol·10^DF·100/3} Here, Ncol is the colony count, and DF is the dilution factor taken from the MTP-well corresponding to the TSA plate segment (i.e. DF may range from 1 for the quench, to 6 for the highest dilution). The factor 100/3 is a conversion factor from the volume of the inocula spot to one milliliter.
Every assay test was performed in triplicate.
Thus, a value of NMBS as of about 7 corresponds to a count of about […] from the fifth dilution well, i.e. with DF=5. Such a count of about 7 is generally observed when bacteria are exposed to non-biocidal materials. In case no surviving colonies are observed in any segment of the TSA plate, this is interpreted as complete kill and a value of NMBS=0 is reported.
S. aureus Bacterial stock was prepared as shown below and the antibacterial efficacy of the active was carried out as explained earlier for E. Coli.
An overnight culture of Staphylococcus aureus (10788 strain) was inoculated onto a Tripticase Soy Agar (TSA) plate and grown for ca. 18 hrs at 37° C. The culture of S. aureus was washed from the plate using sterile saline (0.85% NaCl) solution and a sterile spreader and suspended in 50 ml saline. This suspension was separated into equal volumes and centrifuged at 4000 rpm for 15 minutes. Following centrifugation the pellet was re-suspended in saline to give a final concentration of 0.35 OD620 equivalent to about 10^8 cells per milliliter for this particular organism. Here. OD620 indicates the absorbance of a sample in a cuvette of 1.0 cm path length at a wavelength of 620 nm. This bacterial stock was used for assaying against antimicrobial actives (in triplicate).

Row | SMILES | Log reduction S. aureus ATCC 6538 (S. aureus ATCC 6538) | MBC ([1]; Escherichia coli, ATCC10536, 15 s, in 2.85% sodium cocoyl glycinate + 1.85% sodium lauroamphoacetate solution at pH 10, E. coli, read-out: MBC) | No. of replicates showing growth (out of 4) ([1]; single active at 0.2% w/v) | Δ OD 590 nm = OD590 (time = 16 hours) − OD590 (time zero), Mean ([1]; single active at 0.2% w/v) | ΔOD 450 nm = OD450 (time = 16 hours) − OD450 (time zero), Mean ([1]; single active at 0.2% w/v) | No. of replicates showing growth (out of 4) ([1]; single active at 0.3% w/v) | Δ OD 590 nm = OD590 (time = 16 hours) − OD590 (time zero), Mean ([1]; single active at 0.3% w/v) | ΔOD 450 nm = OD450 (time = 16 hours) − OD450 (time zero), Mean ([1]; single active at 0.3% w/v) | No. of replicates showing growth (out of 4) ([1]; single active at 0.4% w/v) | Δ OD 590 nm = OD590 (time = 16 hours) − OD590 (time zero), Mean ([1]; single active at 0.4% w/v) | ΔOD 450 nm = OD450 (time = 16 hours) − OD450 (time zero), Mean ([1]; single active at 0.4% w/v) | No. of replicates showing growth (out of 4) ([1]; single active at […] w/v) | Δ OD 590 nm = OD590 (time = 16 hours) − OD590 (time zero), Mean ([1]; single active at […] w/v) | ΔOD 450 nm = OD450 (time = 16 hours) − OD450 (time zero), Mean ([1]; single active at […] w/v) | MBC of the component acting alone (QA or QB; Qa or Qb with the other component at 0) (E. coli ATCC #10536) | NMBS [2]
1 | CC=Cc1ccccc1O [2-propenylphenol] | 1.92 | – | – | – | – | – | – | – | – | – | – | – | – | – | – | –
2 | C=C(C)C1CC=C(C)C(O)C1 (stereo not shown) [2-methyl-5-(prop-1-en-2-yl)cyclohex-2-enol] | – | 4000 µg/mL | 4 | 0.61 | −0.51 | 4 | 0.59 | −0.50 | 4 | 0.47 | −0.35 | 4 | 0.63 | −0.50 | 0.7 weight % | 7.27 log CFU/ml
